This is an account of results in publication PMC7717616, “A nanobody-derived mimotope against VEGF inhibits cancer angiogenesis” (Journal of Enzyme Inhibition and Medicinal Chemistry, 2020).

Like-named read-outs stand apart in the source and are kept apart here. Square brackets hold non-standard residues; d marks the D form. Ends that are not written are not given here. Abu = CC[C@H](N)C(=O)O

Experiment [1] relates to HUVEC cells. The experiment in a line: Tube formation assay with HUVEC cells and VEGF. To be noted: HUVEC on Geltrex, nanobody/peptide 1000 nM, VEGF 50 ng/ml, 4–8 h, 37 °C; control with VEGF alone formed complete tubes; Image J. In kind it is cell-based. Here is the method:
About 50 µl of Geltrex LDEV lacking growth factor (Gibco, Invitrogen) were added to 96-well plate followed by a 30–60 min period of incubation at a temperature of 37 °C. One thousands nM of nanobody and peptide were added in two separate microtubes. Then, 50 ng/ml of VEGF were added to the tubes and incubated at a temperature of 37 °C for 1 h. Bevacizumab was as positive control. About 10^4 of HUVEC cells with DMEM culture media plus each microtube’s mixture were seeded in 96-well plates containing Geltrex. Plates were incubated for 4–8 h (temperature of 37 °C in the presence of 5% CO2). After incubation, cells were assessed according to their conditions of tube formation, and tube-like structures analysed by Image J software.
(§1) Prism 5.0 Software (GraphPad, San Diego, CA) was used for statistical analysis. T test was performed for comparison between two groups. The statistical were considered significant when p values < .05.

Experiment [2] deals with HUVEC cells. The experiment in a line: MTT assay, inhibition of HUVEC proliferation. The following applies: for IC50: HUVEC growth; for inhibition of cell growth, 24 h / inhibition of cell growth, 48 h: 1000 nM. Type of experiment: cell-based. The procedure: The HUVEC cell line was purchased from the Pasteur Institute of Iran and was transferred in DMEM media enriched with 10% Foetal Bovine Serum (FBS, Gibco). The cells were then added into T25 cell culture flasks and incubated at a temperature of 37 °C in the presence of 5% CO2. After 3–5 days, confluency of the cells was assessed. At 90% of confluency, cells were removed from the flask by trypsin treatment until their use in following experiments.
About 10^4 of HUVEC cells were suspended in […] of culture media enriched with 2% FBS, and were then transferred to 96-well plates, followed by an incubation at a temperature of 37 °C for 2 h. After incubation at a temperature of 37 °C in the presence of 5% CO2, various concentrations of nanobody and peptide (0–1000 nM) were added to cells, followed by an incubation for 24 and 48 h, respectively. Bevacizumab was used as positive control. After incubation, an MTT (3–(4,5-Dimethylthiazol-2-yl)-2,5-Diphenyltetrazolium Bromide) solution was added to each well and incubated for 4 h. Thereafter, MTT was removed and DMSO (dimethylsulfoxide) was added to the wells. Plates were incubated on shaker for 30 min, and optical densities (OD) were then measured using a spectrophotometer (Epoch).
as §1
For orientation: Tetrazolium assays rely on reduction of a dye to a coloured formazan, in cell work by metabolically active cells.

[3] abbreviates: 0–1000 nM, 24 h, read-out: IC50 (24 h).
Setting [4] is: 0–1000 nM, 48 h, read-out: IC50 (48 h).

With “Bevacizumab: Bevacizumab (positive control)”, the tube-like structures formed with HUVEC cells [1] came out at 20%. Moreover, the values for the IC50 in the experiment on HUVEC cells [2] (setting [3]) and in the experiment on HUVEC cells [2] (setting [4]) were 200 nM and 150 nM, respectively. For the same substance, in the experiment with HUVEC cells [2] (HUVEC, 24 h), the “inhibition of cell growth, 24 h” value is 87%. The “inhibition of cell growth, 48 h” value with HUVEC cells [2] (HUVEC, 48 h) was 97%.
Substance “YY[Abu]AARAWSPYSSTVDAGDFRYWGQ-NH2 [peptide, designed 25-mer peptide from the CDR3 region of the VEGF nanobody]” returned a tube-like structures formed with HUVEC cells [1] of 35%. The IC50 in the experiment with HUVEC cells [2] (setting [3]) stood at 350 nM; in the experiment on HUVEC cells [2] (setting [4]), 200 nM. Moreover, the “dose dependence of inhibition of cellular proliferation (in words)” value in the experiment with HUVEC cells [2] (HUVEC, 0–1000 nM) is “dose dependent”. Moreover, the “inhibition of cell growth, 24 h” value in the experiment on HUVEC cells [2] (HUVEC, 24 h) was determined as 77%. Besides, in the experiment on HUVEC cells [2] (HUVEC, 48 h), the “inhibition of cell growth, 48 h” value was determined as 91%. Further, the “time dependence of effect (in words)” value with HUVEC cells [2] (HUVEC, 24 and 48 h) is listed as “time dependent”.

Usually IC50 stands for the concentration that gives 50% inhibition.
